Results taken from patent publication US20200316092A1, “METHODS OF DIAGNOSIS AND TREATMENT OF LIVER DISEASES USING OBETICHOLIC ACID” (Intercept Pharmaceuticals, Inc., priority 2019, published 2020).
Entries after “also recorded” stand apart in the source; their conditions may differ.

Tests used:
Assay type in all cases: in vivo, human
[1] = tested on: subjects with nonalcoholic steatohepatitis with fibrosis; assay: Phase 1 placebo-controlled study: safety and tolerability (TEAE incidence); conditions: for Total Number of TEAEs: 85 days; for Total Number of TEAEs / Any Serious TEAE / Constipation (TEAE incidence) / Diabetes mellitus (TEAE) / Fatigue (TEAE incidence) / Headache (TEAE incidence) / Hepatobiliary disorders (SOC) (TEAE) / Hypercholesterolemia (TEAE) / LDL Increased, Mild (maximum severity) / LDL Increased, Moderate (maximum severity) / LDL Increased, Severe (maximum severity) / Low density lipoprotein increased (TEAE incidence) / Nausea (TEAE incidence) / Pneumonia (TEAE incidence) / Pruritis (TEAE incidence) / Pruritus, Mild (maximum severity) / Pruritus, Moderate (maximum severity) / Pruritus, Severe (maximum severity) / Subjects with at least one TEAE: n = 20
Source text: Example 1: A Phase 1, Double-Blind, Randomized, Placebo-Controlled Study to Evaluate Safety, Pharmacokinetics, and Pharmacodynamics of Obeticholic Acid in Subjects with Nonalcoholic Steatohepatitis with Fibrosis
(§1) The primary objectives of this study are to evaluate the safety and tolerability of OCA treatment in subjects with NASH with fibrosis and to evaluate single- and multiple-dose pharmacokinetics of OCA, its conjugates, and metabolites in subjects with NASH with fibrosis.
The study comprised three treatment groups-10 mg QD, 25 mg QD and Placebo QD.

FXR activation = assay: Phase 1 study: pharmacodynamic markers of FXR activation (C4, bile acids, FGF-19); conditions: Day 85 compared to baseline
Source text: (§2) The secondary objectives of this study are to evaluate the pharmacodynamics of OCA on FXR activation and to evaluate liver chemistries and the pharmacodynamics of OCA on biomarkers of NASH, including inflammation, apoptosis, and oxidation stress.
Furthermore, plasma bile acids were suppressed by administration of OCA, but no dose response was observed.

[2] = Phase 1 study: liver exposure of OCA and its conjugates
[3] = tested on: subjects with nonalcoholic steatohepatitis with fibrosis; assay: Phase 1 study: liver chemistries (ALT, AST, GGT, bilirubin, ALP); conditions: Day 85 compared to baseline
Source text: as §2

[4] = tested on: liver function of NASH subjects; assay: HepQuant-SHUNT test: disease severity index (DSI) score
Source text: The HepQuant®-SHUNT test uses simultaneous orally administered d4-cholate and intravenously administered 13C-cholate (i.e. intravenous (24-^13C cholate) and oral (2,2,4,4-^2H cholate) together with mass spectrometry analysis of five serum samples from the subject to accurately measure liver function and generate a disease severity index (DSI) score. HepQuant®-STAT is a simpler test that uses only orally administered d4-cholate and a single serum sample from the subject to estimate liver function (STAT).
Briefly, the HepQuant®-SHUNT test allows for simultaneous measurement of the perfusion/uptake from portal circulation and perfusion/uptake from systemic circulation, as shown in FIGS. 1 and 2. In a HepQuant®-SHUNT test, a subject is orally administered 40 mg of d4-cholate and intravenously administered 20 mg of 13C-cholate. Blood samples are then isolated from the subject at 5, 20, 45, 60 and 90 minutes after cholate administration. For each sample, mass spectrometry is used to determine the Portal Hepatic Filtration Rate (Portal HFR) and Systemic Hepatic Filtration Rate (Systemic HFR). The Portal HFR is defined as the clearance of 4D-cholate (dose AUC^−1 kg body weight^−1, typically mL mini kg^−1) and the Systemic HFR is defined as the clearance of 13C-cholate (dose AUC^−1 kg body weight^−1, typically mL min^−1 kg^−1). The Portal HFR and Systemic HFR can then be used to calculate a Disease Severity Index (DSI) score. The DSI can be used to determine the extent of liver function, and therefore the extent of liver damage/disease in the subject. Thus, the DSI score can be used to diagnose a subject with a disease. For example, a DSI greater than 16.5 can indicate that the subject will likely have biopsy-proven NASH. A DSI score can also be used to determine the percent likelihood of endoscopic finding of varices in subjects with NASH or hepatitis C virus infection, as shown in FIG. 3. DSI scores can also be measured multiple times during a course of treatment described herein (a treatment regimen) to determine the efficacy of the course of treatment. For example, a baseline DSI score can be measured by performing a HepQuant®-SHUNT test prior to the start of the treatment regimen (i.e. prior to the first administration of the treatment regimen) and then a second DSI score can be measured at a time point during the treatment regimen. The first and second DSI scores can compared to determine a DSI difference score. For example, a reduction in DSI score from the baseline measurement can indicate that the course of treatment is beneficial as the subject's liver function is improving. Depending on the DSI difference score, the treatment regimen can be adjusted, continued or discontinued.
In some aspects, a DSI difference score that is greater than or equal to 2 (i.e. a decrease in the DSI scores of 2 or more over the course of treatment) is considered to be clinically meaningful, based on reducing the probability of any varices from approximately 30% to 20% for subjects with a baseline DSI of 20.
As part of the HepQuant®-SHUNT test, labeled cholate was administered intravenously and orally. The HepQuant®-SHUNT tests were used to determine disease severity index (DSI) scores.

[5] = Phase 1 study: plasma pharmacokinetics of total OCA; conditions: 10 mg QD or 25 mg QD
Source text: as §1
Furthermore, although there were a limited number of subjects having a fibrosis score of F4, plasma exposure was lower in these subjects as compared to the subjects with a fibrosis score of F1 or F2/F3.

SMILES: CC[C@H]1[C@@H](O)[C@@H]2[C@H](CC[C@]3(C)[C@@H]([C@H](C)CCC(=O)O)CC[C@@H]23)[C@@]2(C)CC[C@@H](O)C[C@@H]12 [OCA, 3α,7α-dihydroxy-6α-ethyl-5β-cholan-24-oic acid]
- TEAEs leading to study discontinuation ([1]; 10 mg QD and 25 mg QD for 12 weeks): no TEAEs leading to study discontinuation
- safety and tolerability ([1]; 10 mg QD and 25 mg QD for 12 weeks, NASH subjects with fibrosis): generally safe and well tolerated
- Total Number of TEAEs ([1]; OCA 10 mg QD): 29
- Any Serious TEAE ([1]; OCA 10 mg QD): 0 n (%)
- Constipation (TEAE incidence) ([1]; OCA 10 mg QD): 2 (10%) n (%)
- Diabetes mellitus (TEAE) ([1]; OCA 10 mg QD): 1 (5%) n (%)
- Fatigue (TEAE incidence) ([1]; OCA 10 mg QD): 2 (10%) n (%)
- Headache (TEAE incidence) ([1]; OCA 10 mg QD): 0 n (%)
- Hepatobiliary disorders (SOC) (TEAE) ([1]; OCA 10 mg QD): 0 n (%)
- Hypercholesterolemia (TEAE) ([1]; OCA 10 mg QD): 0 n (%)
- LDL Increased, Mild (maximum severity) ([1]; OCA 10 mg QD): 2 (10%) n (%)
- LDL Increased, Moderate (maximum severity) ([1]; OCA 10 mg QD): 0 n (%)
- LDL Increased, Severe (maximum severity) ([1]; OCA 10 mg QD): 0 n (%)
- Low density lipoprotein increased (TEAE incidence) ([1]; OCA 10 mg QD): 2 (10%) n (%)
- Nausea (TEAE incidence) ([1]; OCA 10 mg QD): 0 n (%)
- Pneumonia (TEAE incidence) ([1]; OCA 10 mg QD): 0 n (%)
- Pruritis (TEAE incidence) ([1]; OCA 10 mg QD): 3 (15%) n (%)
- Pruritus, Mild (maximum severity) ([1]; OCA 10 mg QD): 3 (15%) n (%)
- Pruritus, Moderate (maximum severity) ([1]; OCA 10 mg QD): 0 n (%)
- Pruritus, Severe (maximum severity) ([1]; OCA 10 mg QD): 0 n (%)
- Subjects with at least one TEAE ([1]; OCA 10 mg QD): 12 (60%) n (%)
- Total Number of TEAEs ([1]; OCA 25 mg QD): 36
- Any Serious TEAE ([1]; OCA 25 mg QD): 0 n (%)
- Constipation (TEAE incidence) ([1]; OCA 25 mg QD): 2 (10%) n (%)
- Diabetes mellitus (TEAE) ([1]; OCA 25 mg QD): 0 n (%)
- Fatigue (TEAE incidence) ([1]; OCA 25 mg QD): 3 (15%) n (%)
- Headache (TEAE incidence) ([1]; OCA 25 mg QD): 0 n (%)
- Hepatobiliary disorders (SOC) (TEAE) ([1]; OCA 25 mg QD): 0 n (%)
- Hypercholesterolemia (TEAE) ([1]; OCA 25 mg QD): 1 (5%) n (%)
- LDL Increased, Mild (maximum severity) ([1]; OCA 25 mg QD): 1 (5%) n (%)
- LDL Increased, Moderate (maximum severity) ([1]; OCA 25 mg QD): 1 (5%) n (%)
- LDL Increased, Severe (maximum severity) ([1]; OCA 25 mg QD): 0 n (%)
- Low density lipoprotein increased (TEAE incidence) ([1]; OCA 25 mg QD): 2 (10%) n (%)
- Nausea (TEAE incidence) ([1]; OCA 25 mg QD): 0 n (%)
- Pneumonia (TEAE incidence) ([1]; OCA 25 mg QD): 2 (10%) n (%)
- Pruritis (TEAE incidence) ([1]; OCA 25 mg QD): 5 (25%) n (%)
- Pruritus, Mild (maximum severity) ([1]; OCA 25 mg QD): 2 (10%) n (%)
- Pruritus, Moderate (maximum severity) ([1]; OCA 25 mg QD): 3 (15%) n (%)
- Pruritus, Severe (maximum severity) ([1]; OCA 25 mg QD): 0 n (%)
- Subjects with at least one TEAE ([1]; OCA 25 mg QD): 15 (75%) n (%)
- LDL cholesterol ([1]; OCA treatment groups (10 mg QD, 25 mg QD)): increase in LDL cholesterol
- FGF-19 levels, percent change from baseline (FXR activation): increased with OCA dose
- C4 levels, percent change from baseline (FXR activation; no dose response): suppressed
- plasma bile acids, percent change from baseline (FXR activation; no dose response): suppressed
- liver exposure of OCA across fibrosis scores ([2]; 10 mg QD, F1 or F2/F3): generally similar across subjects with different fibrosis scores
- liver exposure of OCA across fibrosis scores ([2]; 25 mg QD, F1, F2/F3 or F4): generally similar across subjects with different fibrosis scores
- liver exposure of OCA across fibrosis scores after normalization by dose ([2]; F1, F2/F3 or F4): generally similar across subjects with different fibrosis scores
- ALP levels, change from baseline [3]: dose dependent increase
- biochemistry markers of hepatic cytotoxicity and dysfunction (ALT, AST, GGT, total bilirubin, direct bilirubin) ([3]; no dose-dependent response): suppressed
- reduction in DSI ([4]; 10 mg QD or 25 mg QD, Day 85, greater response at 25 mg QD): dose-dependent and clinically meaningful reduction; also recorded: dose-dependent response
- subjects treated with OCA among the 18 subjects with clinically relevant ΔDSI of at least −2 ([4]; F1, F2/F3 or F4, 10 mg QD or 25 mg QD, Day 85): 17 subjects
- Responders (≥2 point decrease in DSI), % ([4]; F1, OCA 10 mg QD, Day 85, n = 3): (67) %
- Responders (≥2 point decrease in DSI), % ([4]; F1, OCA 25 mg QD, Day 85, n = 5): (20) %
- change in DSI score (Day 85−Baseline) vs placebo ([4]; F2/F3 NASH subjects, greatest effect at 25 mg QD): greater improvement in DSI score
- Responders (≥2 point decrease in DSI), % ([4]; F4, OCA 10 mg QD, Day 85, n = 2): (50) %
- Responders (≥2 point decrease in DSI), % ([4]; F4, OCA 25 mg QD, Day 85, n = 1): (100) %
- plasma exposure of OCA, NASH subjects vs healthy subjects ([5]; day 1 and day 85): modestly higher in NASH subjects
- plasma exposure in F4 subjects compared to F1 or F2/F3 ([5]; limited number of F4 subjects): lower
